Structures can show the parent of a compound that is named as a salt.
Columns and labels:
[1] = Preliminary HCl-salt-formation and crystallisation experiments (crystal form stability); assay type: physicochemical; details: hydrochloride salt crystal forms; without being bound by theory
Excerpt: Crystalline Form 1 (or a predominance of crystalline Form 1) is often formed initially depending on the conditions, but, depending on the conditions (such as the type of solvent and the solubility of crystalline Form 1 in it, and/or the temperature and/or temperature time course, and/or the contact time of the crystalline Form 1 with the solvent), the crystalline Form 1 can then often convert to crystalline Form 2 to a greater or lesser extent when in contact with a suitable solvent i.e. a solvent suitable for converting crystalline Form 1 to crystalline Form 2.

histamine H3 receptor = biological target: T1, histamine H3 receptor (Rattus norvegicus, UniProt Q9QYN8); details: following oral administration to the rat; Medhurst et al. 2007; cited from earlier work
T1 construct: host or cells: rat cortex

rats = details: at certain oral doses; passive avoidance, water maze, object recognition, attentional set shift; Medhurst et al. 2007; cited from earlier work
rodent models = details: five choice task, object recognition, elevated plus maze, acquisition of novel task, passive avoidance; literature reports; cited from earlier work
[2] = Plasma clearance in the pig-PET study; assay type: in vivo; details: Yorkshire-Landrace, iv, 50 ug/kg, 50 micrograms/kg i.v.
[3] = biological target: T2, brain histamine H3 receptor (Rattus norvegicus, UniProt Q9QYN8); assay: Rat ex vivo binding studies - rat brain histamine H3 receptor occupancy ([3H]-R-α-methylhistamine); assay type: in vivo; details: for inhibition of [3H]-R-α-methylhistamine specific binding to the H3 receptor (surrogate for rat brain H3 receptor occupancy): 10 mg/kg oral; for specific binding of [3H]-R-α-methylhistamine to the H3 receptor: rats n=3, 10 mg/kg oral, mean ± SEM
T2 construct: from tissue; host or cells: cerebral cortex homogenate of adult male Lister hooded rats
Method: Ex vivo binding studies were carried out to determine brain histamine H3 receptor occupancy in rats at certain time points after oral administration of a test compound.
Adult male rats (Lister hooded 200-250 g, Charles River, UK) received vehicle (1% w/v aqueous methylcellulose) (control) or the test compound (10 mg/kg) by oral gavage (n=3 per group) and were sacrificed 1 or 4 hours following oral dosing. The 1 hour and 4 hour studies were not necessarily done on the same day. Terminal blood samples were collected and brains rapidly removed. Cerebral cortex tissue was dissected from half of each brain for ex vivo binding; the other half brain can be used for pharmacokinetic analysis of brain concentrations of each compound. All dissected tissue samples were snap-frozen in liquid nitrogen, and stored at −80° C. until use. The tissues were rapidly thawed and homogenised in approximately 30 volumes of ice cold assay reaction buffer. The assay reaction buffer contained 50 mM Tris-HCl (made up using Trizma pre-set crystals pH 7.7 @25° C., Sigma cat. No. T8068-250G) and 5 mM EDTA, with a final buffer pH of 7.2 to 7.8, usually about 7.4. The crude homogenate (600-800 μg/well) was then used to measure H3 receptor binding using [^3H]-R-α-methylhistamine as radioligand. Assays measuring total binding of [^3H]-R-α-methylhistamine consisted of 50 μl assay reaction buffer, 400 μl of homogenate (corresponding to 600-800 μg/well) and 50 μl of 2 nM R(−)α-Methyl[imidazole-2,5(n)-3H]histamine dihydrochloride ([^3H]-R-α-methylhistamine; specific activity, 24 Ci mmol^−1, Amersham Biosciences, catalogue no. TRK1017). Incubations with [^3H]-R-α-methylhistamine were for 45 min at 30° C. Non-specific binding of [^3H]-R-α-methylhistamine was determined in parallel using the same assay except that 50 μl of 10 μM imetit (an H3 receptor agonist, e.g. available from Tocris) was used instead of the 50 μl of assay reaction buffer. The experiments were terminated by rapid filtration through Whatman GF/B filters (pre-soaked in 0.3% v/v polyethyleneimine (PEI)), and then the filters were washed through with 4×5 ml of ice cold harvesting buffer. The harvesting buffer contained 50 mM Tris-HCl (from Trizma pre-set crystals pH 7.7 @ 25° C.) and 5 mM MgCl2, with a final buffer pH of 7.2 to 7.8, usually about 7.4. Filters were dried and added to vials each containing 4 ml Ultima Gold MV scintillation fluid (Hewlett Packard) and radioactivity determined by liquid scintillation spectrometry using a Packard Tri-Carb 2500TR liquid scintillation counter.
Specific binding of [^3H]-R-α-methylhistamine to the H3 receptor was determined by the subtraction of the value obtained for non-specific binding from the value obtained for total binding.
Protein concentrations were determined using the Bradford assay method (Bio-Rad
Protein Assay Dye Reagent Concentrate, catalogue no. 500-0006; from Bio-Rad Laboratories GmbH, Heidemannstrasse 164, 80939 Muenchen, Germany; or from Bio-Rad, York, UK) with bovine serum albumin as a standard. Specific radioactivity in the samples was corrected for protein (i.e. per microgram of protein).
The specific binding of [^3H]-R-α-methylhistamine to the H3 receptor is expressed as a mean (n=3 rats)±SEM (standard error of the mean), as a percentage of vehicle-treated control animals. Data is also expressed as inhibition of [^3H]-R-α-methylhistamine specific binding to the H3 receptor, as a surrogate measure for H3 receptor occupancy by the test compound, calculated as 100% minus the % mean specific binding of [^3H]-R-α-methylhistamine to the H3 receptor.

H3 receptor = H3 receptor (Sus scrofa, UniProt A0A287B9V8); assay: Pig-PET study with [11C]GSK189254: pig brain H3 receptor occupancy over time and kon-koff limited model; details: 50 micrograms/kg i.v.; for Measured H3 receptor occupancy @ 10 min: 10 minutes post administration; for Measured H3 receptor occupancy @ 2.5 h: 2.5 hours post administration; for Measured H3 receptor occupancy @ 6 h: 6 hours post administration; for Kd: Kd (koff/kon); for koff: iv; for koff / kon: Salt B
[4] = mean ± standard deviation, n=3 pigs
[5] = average model (from average plasma data and average occupancy)

H3 receptor, sequence (A0A287B9V8 1-448): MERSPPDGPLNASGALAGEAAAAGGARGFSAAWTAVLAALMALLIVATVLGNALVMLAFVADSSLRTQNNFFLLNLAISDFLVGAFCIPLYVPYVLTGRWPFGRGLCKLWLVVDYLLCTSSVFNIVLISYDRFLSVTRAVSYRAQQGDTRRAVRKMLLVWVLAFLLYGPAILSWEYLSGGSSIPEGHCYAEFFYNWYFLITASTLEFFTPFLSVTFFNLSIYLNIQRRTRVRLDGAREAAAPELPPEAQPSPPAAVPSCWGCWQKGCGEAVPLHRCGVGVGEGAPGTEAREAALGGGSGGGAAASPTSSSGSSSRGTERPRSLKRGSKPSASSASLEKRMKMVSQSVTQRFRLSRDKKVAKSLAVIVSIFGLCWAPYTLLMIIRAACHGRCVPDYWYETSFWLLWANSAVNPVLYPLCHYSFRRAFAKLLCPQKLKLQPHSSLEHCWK
T2 sequence (Q9QYN8 whole entry): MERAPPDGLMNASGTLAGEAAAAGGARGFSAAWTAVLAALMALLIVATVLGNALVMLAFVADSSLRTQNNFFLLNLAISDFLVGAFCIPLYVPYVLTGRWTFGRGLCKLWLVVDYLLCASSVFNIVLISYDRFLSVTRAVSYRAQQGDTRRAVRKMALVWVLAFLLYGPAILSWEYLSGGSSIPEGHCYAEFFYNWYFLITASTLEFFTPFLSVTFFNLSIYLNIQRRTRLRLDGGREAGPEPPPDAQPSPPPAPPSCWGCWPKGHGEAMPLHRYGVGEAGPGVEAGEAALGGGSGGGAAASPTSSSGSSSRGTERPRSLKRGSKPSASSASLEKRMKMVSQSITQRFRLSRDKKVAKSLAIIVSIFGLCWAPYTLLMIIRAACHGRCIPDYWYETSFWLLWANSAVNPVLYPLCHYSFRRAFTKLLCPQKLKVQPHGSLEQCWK
T1 sequence (Q9QYN8 whole entry): as above

CC(C)N1CCN(C(=O)c2ccc(OC3CCOCC3)cc2)CC1 [Example 3]
thermodynamic stability relative to crystalline Form 1 [1]: more thermodynamically stable than crystalline Form 1

CNC(=O)c1ccc(Oc2ccc3c(c2)CCN(C2CCC2)CC3)nc1 [GSK189254]
[3H]R-α-methylhistamine ex vivo binding in the rat cortex (histamine H3 receptor): inhibited
performance of rats in cognition paradigms (rats): improved performance

CC(C)(C)CCC#C[C@@H]1C[C@H]1c1c[nH]cn1 [GT-2331]
cognitive effect in rodent models (rodent models): cognitive enhancing properties

CC(C)N1CCCN(C(=O)c2ccc(OC3CCOCC3)cc2)CC1 [Salt B, reference compound]
clearance ([2]; average model (from average plasma data)): 48.3 mL/min
clearance ([2]; mean of pigs 1-3): 46.7 mL/min
clearance ([2]; pig 1): 60 mL/min
clearance ([2]; pig 2): 30 mL/min
clearance ([2]; pig 3): 46.7 mL/min
inhibition of [3H]-R-α-methylhistamine specific binding to the H3 receptor (surrogate for rat brain H3 receptor occupancy) ([3]; 1 hour after dosing): about 60%
inhibition of [3H]-R-α-methylhistamine specific binding to the H3 receptor (surrogate for rat brain H3 receptor occupancy) ([3]; 4 hours after dosing): about 12%
specific binding of [3H]-R-α-methylhistamine to the H3 receptor ([3]; sacrificed 1 hour after dosing): 40%+4%
specific binding of [3H]-R-α-methylhistamine to the H3 receptor ([3]; sacrificed 4 hours after dosing): 88%+6%
Measured H3 receptor occupancy @ 10 min (H3 receptor; [4]): 63% ± 10%
Measured H3 receptor occupancy @ 10 min (H3 receptor; pig 1): 51%
Measured H3 receptor occupancy @ 10 min (H3 receptor; pig 2): 69%
Measured H3 receptor occupancy @ 10 min (H3 receptor; pig 3): 68%
Measured H3 receptor occupancy @ 2.5 h (H3 receptor; [4]): 37% ± 16%
Measured H3 receptor occupancy @ 2.5 h (H3 receptor; pig 1): 19%
Measured H3 receptor occupancy @ 2.5 h (H3 receptor; pig 2): 49%
Measured H3 receptor occupancy @ 2.5 h (H3 receptor; pig 3): 43%
Measured H3 receptor occupancy @ 6 h (H3 receptor; [4]): 33% ± 4%
Measured H3 receptor occupancy @ 6 h (H3 receptor; pig 1): 30%
Measured H3 receptor occupancy @ 6 h (H3 receptor; pig 2): 32%
Measured H3 receptor occupancy @ 6 h (H3 receptor; pig 3): 38%
Kd (H3 receptor; [5]): 5.2 nM
Kd (H3 receptor; mean of pigs 1-3): 4.76 nM
Kd (H3 receptor; pig 1, in vivo PK/RO model): 5.6 nM
Kd (H3 receptor; pig 2, in vivo PK/RO model): 5.05 nM
Kd (H3 receptor; pig 3, in vivo PK/RO model): 3.61 nM
koff (H3 receptor; PIG1, pig, pig 1, estimated model parameter): 5.5e-05 s⁻¹
kon (H3 receptor; [5]): 0.0025 min⁻¹
kon (H3 receptor; mean of pigs 1-3): 0.0024 min⁻¹
kon (H3 receptor; pig 1, estimated model parameter): 0.0017 min⁻¹
kon (H3 receptor; pig 2, estimated model parameter): 0.0024 min⁻¹
kon (H3 receptor; pig 3, estimated model parameter): 0.0031 min⁻¹
koff (H3 receptor; pig, average model (from average plasma data and average occupancy)): 7.5e-05 s⁻¹
koff (H3 receptor; pig, mean of pigs 1-3): 6.33e-05 s⁻¹
koff (H3 receptor; pig, pig 2, estimated model parameter): 7e-05 s⁻¹
koff (H3 receptor; pig, pig 3, estimated model parameter): 6.5e-05 s⁻¹

O=C(c1ccc(OCCCc2cnc[nH]2)cc1)C1CC1 [ciproxifan]
cognitive effect in rodent models (rodent models): cognitive enhancing properties

NC(=NCc1ccc(Cl)cc1)SCCCc1cnc[nH]1 [clobenpropit]
cognitive effect in rodent models (rodent models): cognitive enhancing properties

S=C(NC1CCCCC1)N1CCC(c2cnc[nH]2)CC1 [thioperamide]
cognitive effect in rodent models (rodent models): cognitive enhancing properties

— patent publication US20090170869A1, “PIPERAZINE DERIVATIVE HAVING AFFINITY FOR THE HISTAMINE H3 RECEPTOR” (priority 2007, published 2009)
